Laboratory results published in patent US20250290117A1, “MOLECULAR PHENOTYPIC ANTIMICROBIAL SUSCEPTIBILITY TESTING” (priority 2024, published 2025).

Key:
[1] = test system: pathogens of clinical samples; test: Molecular phenotypic antimicrobial susceptibility test of clinical samples, direct PCR without a separate DNA purification step (Table 6); format: cell-based
Protocol: (§1) Detection of Molecular Phenotypic Antimicrobial Susceptibility. Disclosed herein are the methods for the detection of phenotypic antimicrobial susceptibility via molecular methods. The present invention describes how a specimen 100 with a known microbial load is incubated and then exposed to a panel of antimicrobial agents to determine sensitivity (prevention of growth) or resistance (allowance of growth) to the specific antimicrobial agents tested utilizing molecular methods.
(§2) Sample Collection. Specimens 100 are collected from patients using sterile collection processes that are employed in routine clinical care. Specimens are transported to the testing facility in boric acid preservative.
Preparation of the Specimens for Testing. […] The process for pathogen isolation includes steps of harvesting the pathogen (e.g., via centrifugation), isolating pathogen DNA via a DNA isolation and/or purification kit, and performing PCR on the pathogen DNA via PCR components (e.g., primers, enzymes, buffers) as would be known to the skilled artisan. […] This aliquot is used for antimicrobial susceptibility testing if indicated based on the pathogen detection results. […] Specimens 100 with lower pathogen loads could also be utilized in the antibiotic susceptibility phase of testing with or without a longer incubation period.
(§3) Preparation of Antimicrobial Susceptibility Testing Plates. Antimicrobial solutions are prepared at known concentrations. The specific antimicrobials and their concentrations are selected based on the pathogen of interest and the described antimicrobial resistance breakpoints for that specimen pathogen and antimicrobial combination. These antimicrobials have been selected based on those commonly utilized by healthcare providers in routine clinical care for the specific type of suspected infection. The number and types of antimicrobials utilized can be customized based on the infection source, pathogen detected, patient-specific factors such as allergies or other health conditions (e.g., chronic kidney disease or concurrent medication use), or healthcare provider preferences such as antimicrobial availability or cost.
The antimicrobial solutions are prepared in liquid culture media (such as Muller Hinton Broth) to achieve the desired antimicrobial concentration and are then stored at −80° C. until use. For a given specimen, each antimicrobial is tested at a single or multiple antimicrobial concentration(s) which is its established breakpoints for sensitivity. The antimicrobial solutions are prepared and plated out for each specific pathogen. […] This allows for evaluation of pathogen load when no antimicrobial is present.
Specimen Exposure to Antimicrobial Agents. The 1 mL aliquot of the specimen 100 previously mixed with culture media and incubated is obtained. Using optical density measurements as a guide, the specimen 100 is diluted to 0.5 McFarland.
Antimicrobial exposure plates are typically placed into an incubator for 12-16 hours.
Nucleic Acid Amplification of Antimicrobial Agent Exposed Pathogens. The antimicrobial exposure plate is removed after the period of incubation. The specimen then undergoes a purification or lysis step. For example, the specimen may undergo a purification step (e.g., magnetic bead-based or other separation protocol to isolate genetic material). In another example, the specimen may undergo a cell lysis step. For example, buffer (e.g., lysis buffer) may be added and incubated in the thermal cycler for preparation for direct PCR. Next, the specimen may undergo a polymerase chain reaction (PCR) testing protocol, whereby a semi-quantitative PCR method is utilized. This may be completed either with or without a specific extraction protocol step. The pathogens can be individually targeted and detected, or a universal genetic sequence can be utilized to detect the antimicrobial susceptibility of the specimen as a whole.

Escherichia coli = test: Molecular phenotypic antimicrobial susceptibility test (extraction or DNA purification prior to PCR); format: cell-based
In short: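 Growth of clinical isolates under antimicrobials held at breakpoint concentrations was scored by semi-quantitative PCR against drug-free control wells. Exposure ran 12-16 hours from a 0.5 McFarland inoculum.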

E. coli [2] = test: Molecular phenotypic antimicrobial susceptibility test, specimen with two detected pathogens incubated together without isolation; format: cell-based, Escherichia coli; conditions: E. coli in specimen with two detected pathogens (E. coli and M. morganii) incubated together
Protocol: as §1
as §2, with “preservative. Specimens 100 are subsequently divided into a first sample 104 and a second sample 108.” for “preservative.”
(§4) Preparation of the Specimens for Testing. The specimens 100 are put through a pathogen identification process using PCR technology (e.g., using the first sample 104). The process for pathogen isolation includes steps of harvesting the pathogen (e.g., via centrifugation), isolating pathogen DNA via a DNA isolation and/or purification kit, and performing PCR on the pathogen DNA via PCR components (e.g., primers, enzymes, buffers) as would be known to the skilled artisan. Simultaneously, an additional aliquot of the same specimen (e.g., the second sample 108) is placed with liquid culture media and incubated for 4-6 hours. This aliquot is used for antimicrobial susceptibility testing if indicated based on the pathogen detection results. After pathogen identification is completed and if more than 10,000 cells/mL of bacteria (e.g., eligible bacteria) are detected in the source specimen, the second sample 108 then enters the antimicrobial susceptibility phase of testing. Specimens 100 with lower pathogen loads could also be utilized in the antibiotic susceptibility phase of testing with or without a longer incubation period.
as §3
(§5) The antimicrobial solutions are prepared in liquid culture media (such as Muller Hinton Broth) to achieve the desired antimicrobial concentration and are then stored at −80° C. until use. For a given specimen, each antimicrobial is tested at a single or multiple antimicrobial concentration(s) which is its established breakpoints for sensitivity. The antimicrobial solutions are prepared and plated out for each specific pathogen. This allows ease of use on the day of testing after defrosting the plate 112. Table 1, which illustrates the results of molecular phenotypic antimicrobial susceptibility testing when more than one organism is present in the source specimen, provides an example of an antimicrobial plate 112 prepared for this purpose. Of note, control wells containing only culture media are present on all plates 112. This allows for evaluation of pathogen load when no antimicrobial is present.
(§6) Specimen Exposure to Antimicrobial Agents. The 1 mL aliquot of the specimen 100 previously mixed with culture media and incubated is obtained. Using optical density measurements as a guide, the specimen 100 is diluted to 0.5 McFarland. […]

E. coli [3] = test: Molecular phenotypic antimicrobial susceptibility test with direct PCR (no extraction DNA purification step); format: cell-based, Escherichia coli
Protocol: as §1
as §2, with “preservative. Specimens 100 are subsequently divided into a first sample 104 and a second sample 108.” for “preservative.”
as §4, §3, §5, §6

CO/N=C(\C(=O)N[C@@H]1C(=O)N2C(C(=O)O)=C(CSc3nc(=O)c(=O)[nH]n3C)CS[C@H]12)c1csc(N)n1 [Ceftriaxone]
Molecular Antibiotic Susceptibility Result ([1]; E. coli, clinical sample of r10-r24): Sensitive (Antimicrobial wells with pathogen load detected below the control wells (typically >2 cycle thresholds later) may be reported as Sensitive) | Ct ([1]; E. coli, clinical sample of r10-r24, Ct control avg 12.97): 24.791 | Molecular Antibiotic Susceptibility Result ([1]; E. coli, clinical sample of r158-r172): Sensitive (Antimicrobial wells with pathogen load detected below the control wells (typically >2 cycle thresholds later) may be reported as Sensitive) | Ct ([1]; E. coli, clinical sample of r158-r172, Ct control avg 12.894): 30.396 | Molecular Antibiotic Susceptibility Result ([1]; K. aerogenes, clinical sample of r136-r150): Sensitive (Antimicrobial wells with pathogen load detected below the control wells (typically >2 cycle thresholds later) may be reported as Sensitive) | Ct ([1]; K. aerogenes, clinical sample of r136-r150, Ct control avg 13.854): 29.137 | Molecular Antibiotic Susceptibility Result ([1]; K. pneumoniae, clinical sample of r121-r135): Sensitive (Antimicrobial wells with pathogen load detected below the control wells (typically >2 cycle thresholds later) may be reported as Sensitive) | Ct ([1]; K. pneumoniae, clinical sample of r121-r135, Ct control avg […]): 28.004 | Molecular Antibiotic Susceptibility Result ([1]; M. morganii, clinical sample of r55-r69): Sensitive (Antimicrobial wells with pathogen load detected below the control wells (typically >2 cycle thresholds later) may be reported as Sensitive) | Ct ([1]; M. morganii, clinical sample of r55-r69, Ct control avg 12.09): 29.28 | Molecular Antibiotic Susceptibility Result ([1]; M. morganii, clinical sample of r70-r84): Sensitive (Antimicrobial wells with pathogen load detected below the control wells (typically >2 cycle thresholds later) may be reported as Sensitive) | Ct ([1]; M. morganii, clinical sample of r70-r84, Ct control avg 11.677): 28.625 | Molecular Antibiotic Susceptibility Result ([1]; P. mirabilis, clinical sample of r25-r39): Sensitive (Antimicrobial wells with pathogen load detected below the control wells (typically >2 cycle thresholds later) may be reported as Sensitive) | Ct ([1]; P. mirabilis, clinical sample of r25-r39, Ct control avg 11.801): 22.976 | Molecular Antibiotic Susceptibility Result ([1]; P. mirabilis, clinical sample of r40-r54): Sensitive (Antimicrobial wells with pathogen load detected below the control wells (typically >2 cycle thresholds later) may be reported as Sensitive) | Ct ([1]; P. mirabilis, clinical sample of r40-r54, Ct control avg 10.06): 28.394 | Ct at Sensitive Breakpoint (Escherichia coli; E. coli isolate 1, Ct at control (average) 21.238): 19.368 | Molecular Antimicrobial Susceptibility Result (Escherichia coli; E. coli isolate 1, at sensitive breakpoint): Resistant | Ct at Sensitive Breakpoint (Escherichia coli; E. coli isolate 2, Ct at control (average) 21.270): 20.665 | Molecular Antimicrobial Susceptibility Result (Escherichia coli; E. coli isolate 2, at sensitive breakpoint): Resistant | Ct at Sensitive Breakpoint (Escherichia coli; E. coli isolate 3, Ct at control (average) 22.0995): 18.979 | Molecular Antimicrobial Susceptibility Result (Escherichia coli; E. coli isolate 3, at sensitive breakpoint): Resistant | Ct at Sensitive Breakpoint (Escherichia coli; E. coli isolate 4, Ct at control (average) 17.5733): 17.74 | Molecular Antimicrobial Susceptibility Result (Escherichia coli; E. coli isolate 4, at sensitive breakpoint): Resistant | Ct at Sensitive Breakpoint (Escherichia coli; E. coli isolate 5, Ct at control (average) 21.0933): 25.48 | Molecular Antimicrobial Susceptibility Result (Escherichia coli; E. coli isolate 5, at sensitive breakpoint): Sensitive (Antimicrobial wells with pathogen load detected below the control wells (typically >2 cycle thresholds later) may be reported as Sensitive) | Ct of Sensitive Breakpoint (E. coli [2]; Ct of controls (average) 15.93): 28.57 | Molecular Antimicrobial Susceptibility Result (E. coli [2]; at sensitive breakpoint): Sensitive (Antimicrobial wells with pathogen load detected below the control wells (typically >2 cycle thresholds later) may be reported as Sensitive) | Molecular Antimicrobial Susceptibility Result (E. coli [3]; E. coli #1 - WDCM 00090 - 6.2×E3, specimen with <10,000 cells/mL, direct PCR after 16 hours of incubation): Sensitive (Antimicrobial wells with pathogen load detected below the control wells (typically >2 cycle thresholds later) may be reported as Sensitive) | Ct at Sensitive Breakpoint (E. coli [3]; E. coli #1 - WDCM 00090 - 6.2×E3, specimen with <10,000 cells/mL, direct PCR after 16 hours of incubation, Ct at control 13.787): 26.31 | Molecular Antimicrobial Susceptibility Result (E. coli [3]; E. coli #2 - WDCM 00090 - 6.2×E3, specimen with <10,000 cells/mL, direct PCR after 16 hours of incubation): Sensitive (Antimicrobial wells with pathogen load detected below the control wells (typically >2 cycle thresholds later) may be reported as Sensitive) | Ct at Sensitive Breakpoint (E. coli [3]; E. coli #2 - WDCM 00090 - 6.2×E3, specimen with <10,000 cells/mL, direct PCR after 16 hours of incubation, Ct at control 13.46): 27.18 | Ct at Sensitive Breakpoint (E. coli [3]; E. coli isolate JJ1887, direct PCR, Ct at control (average) 12.832): 12.353 | Molecular Antimicrobial Susceptibility Result (E. coli [3]; E. coli isolate JJ1887, direct PCR, at sensitive breakpoint): Resistant
